US20240317722A1, “HETEROARYL-3-PIPERIDINEDIONE COMPOUND AND USE THEREOF” (Medshine Discovery Inc., priority 2021, published 2024)
pIC50: −log10 of the molar value. Read-outs that look alike come from different tables or passages of the source.

Experiments:
NCI-H69 = assay: Anti-proliferative effect in NCI-H69 (CellTiter-Glo); format: cell-based; details: NCI-H69, 3 days; for pIC50: Homo sapiens, 72 h
Protocol: (§1) This assay studied the inhibitory effect of the compounds on cell proliferation by detecting the effect of the test compounds on the in vitro activity of tumor cells NCI-H1581, DMS114, NCI-H69 and NCI-H526.
(§2) The tumor cell lines were cultured in an incubator at 37° C., 5% CO2 or 0% CO2 according to the above culture conditions. The cells were periodically passaged, and cells in logarithmic growth phase were taken for plating. • 2. Cell plating • (1). Cells were stained with trypan blue and viable cells were counted.
(§3) • (3). 100 μL of cell suspension was added to each well of the culture plate, and culture medium without cells was added to the blank control well. • (4). The plate was incubated overnight in an incubator at 37° C., 5% CO2 or 0% CO2, and 100% relative humidity. • 3. Preparation of compound stock solution
(§4) Preparation of 1000× compound stock solution: Compound was dissolved in DMSO to 10 mM, then a portion was taken out and diluted to 1000 times the highest acting concentration. The diluted stock solution was dispensed for later use. • 4. Preparation of 5× compound working solution and treatment of cells with compounds. The working solutions were prepared freshly at each time for use. • (1). Preparation of 5× compound working solution: 119.4 μL of cell culture medium was added to a 96-well plate with a V-shaped bottom. 96 μL of DMSO-cell culture medium mix solution (with DMSO content of 0.5%) was added to subsequent gradient wells. 0.6 μL of the compound from the 1000× compound stock solution was added to the cell culture medium in the 96-well plate, and mixed to uniform with a pipette. A pipette was used to draw 24 μL of the compound-cell culture medium mixture into subsequent wells, and the mixture was mixed well by a pipette each time. • (2). Dosing: 25 μL of 5× compound working solution was added to the cell culture plate. 25 μL of DMSO-cell culture medium mix solution (with DMSO content of 0.5%) was added to the vehicle control and blank control. • (3). The 96-well cell plate was placed back into the incubator and cultured for 3 days. • 5. CellTiter-Glo luminescence cell viability detection
(§5) The following steps were performed according to the instruction of Promega CellTiter-Glo luminescence cell viability detection kit (Promega-G7573). • (1). The CellTiter-Glo buffer was thawed and allowed to stand to reach room temperature; • (2). CellTiter-Glo substrate was allowed to stand to reach room temperature; • (3). 10 mL of CellTiter-Glo buffer was added to CellTiter-Glo substrate in a bottle to dissolve the substrate to formulate CellTiter-Glo working solution; • (4). […] The culture plates were left at room temperature for 10 minutes to stabilize the luminescence signal; • (9). The luminous signal was detected on the 2104 En Vision plate reader. • 6. […]

NCI-H526 = assay: Anti-proliferative effect in NCI-H526 (CellTiter-Glo); format: cell-based; details: NCI-H526, 3 days; for pIC50: Homo sapiens, 72 h
Protocol: as §1, §2, §3, §4, §5

[1] = Pharmacokinetics of compounds in mice; format: in vivo, C57BL/6N mice; details: for bioavailability / clearance / Vd / half-life: male, C57BL/6N, mouse, plasma; for bioavailability: read-out: Bioavailability F; for Vd: read-out: Apparent volume of distribution; for half-life: read-out: Elimination half-life (converted)
Excerpt: In this study, C57BL/6N male mice were selected as the test animals, and the LC/MS/MS method was used to quantitatively determine the drug concentration in the plasma of mice intravenously or orally administered the test compounds, so as to evaluate the pharmacokinetic profile of the test compounds in mice.
C57BL/6N mice (male, 20-30 g, 7-10 weeks old, Beijing Vital River).
A clear solution or suspension of the test compound was intravenously injected into C57BL/6N mice (fasted overnight) via tail or given to C57BL/6N mice (fasted overnight) by gavage. For intravenous injection administration, blood was collected from the cheek at 0 h (before administration) and 0.083, 0.25, 0.5, 1, 2, 4, 6, 8, and 24 h after administration. Each sample was collected about 0.05 mL. Heparin sodium was added to anti-coagulate. Plasma samples were collected and placed on wet ice, and centrifuged within 1 hour to separate the plasma (centrifugation conditions: 6000 g, 3 minutes, 2-8° C.). Blood samples were stored in a −80° C. refrigerator before analysis; For oral gavage administration, blood was collected from the cheek at 0 h (before administration) and 0.083, 0.25, 0.5, 1, 2, 4, 6, 8, 24 h after administration. Each sample was collected about 0.05 mL. Heparin sodium was added to anti-coagulate. Plasma samples were collected and placed on wet ice, and centrifuged within 1 hour to separate the plasma (centrifugation conditions: 6000 g, 3 minutes, 2-8° C.). Blood samples were stored in a −80° C. refrigerator before analysis. Through blood drug concentration data at different time points, Phoenix WinNonlin8.2.0 was used to calculate pharmacokinetic parameters, providing parameters such as AUC0-t, AUC0-∞, MRT0-∞, Cmax, Tmax, and T1/2, etc. and their mean and standard deviation.

[2] = administration by gavage, 10 mg/kg

Row | SMILES | pIC50 (NCI-H69) | Max. IR (NCI-H69) [%] | pIC50 (NCI-H526) | Max. IR (NCI-H526) [%] | Area under the plasma concentration-time curve (0-inf) [1, 2] [µM·h] | Peak concentration [1, 2] [µM] | Time to peak [1, 2] [h] | Area under the plasma concentration-time curve (0-inf) ([1]; intravenous injection, 2 mg/kg) [µM·h] | bioavailability ([1]; PO 10 mg/kg vs IV 2 mg/kg) [%] | clearance ([1]; intravenous injection, 2 mg/kg) [mL/min/kg] | Vd ([1]; intravenous injection, 2 mg/kg) [L/kg] | half-life ([1]; intravenous injection, 2 mg/kg) [h] | Area under the plasma concentration-time curve (0-inf) ([1]; intravenous injection, 1 mg/kg) [µM·h] | bioavailability ([1]; PO 10 mg/kg vs IV 1 mg/kg) [%] | clearance ([1]; intravenous injection, 1 mg/kg) [mL/min/kg] | Vd ([1]; intravenous injection, 1 mg/kg) [L/kg] | half-life ([1]; intravenous injection, 1 mg/kg) [h]
1 | COCCOc1cc(NC(=O)NCc2ccc3c(C4CCC(=O)NC4=O)noc3c2)cc(Cl)c1C (stereo not drawn) [WX013] | 8.89 | 70.53 | 10.00 | 99.37 | 40.90 | 3.06 | 2.67 | 37.03 | 22.1 | 1.84 | 0.44 | 5.11 |  |  |  |  | 
2 | COCCOc1cc(NC(=O)NCc2ccc3c(C4CCC(=O)NC4=O)coc3c2)cc(Cl)c1C (stereo not drawn) [WX005] | 8.21 | 68.41 | 9.30 | 99.17 | 108.89 | 23.27 | 1.00 |  |  |  |  |  | 14.34 | 75.9 | 2.3 | 0.35 | 2.71
